Values joined by “and” are separate entries in the source; they are usually repeats but may differ in a detail not shown here. Equal entries are not always repeated. Where two headings read alike, the source gives them in different places.
Tests used:
platelets [1] = test: Platelet aggregation assay of Example XI; assay type: cell-based; settings: for reactivity relative to 8X in platelet aggregation: fold more reactive than 8X
Protocol: (§1) Platelet aggregation was assessed using the method of Born, Nature 194:927-929 (1962), incorporated herein by reference. Briefly, the change in light transmission was measured through a stirred suspension of platelets in an aggregometer (Model 400 VS, Chrono-Log, Havertown, Pa., USA). […] In studies using thrombin, the PRP was gel-filtered on Sepharose 2B in divalent ion-free Tyrode's solution containing 2% BSA. For all studies, the reference standard was platelet-poor plasma, which was obtained by centrifuging PRP at 1000× g for 5 min.
(§2) (Platelet count was determined with the aid of a hemacytometer.) Peptides and stimulants were added to these suspensions in 1% dilutions. The PRP and gel-filtered platelets were used within three hours from the time of blood collection.

GP IIb/IIIa = GP IIb/IIIa (Homo sapiens, UniProt P05106+P08514); test: Inhibition of binding of various ligands to GP IIb/IIIa; settings: fibrinogen vs fibronectin and vitronectin
[2] = target: T1, vitronectin receptor (Vn-R) (Homo sapiens, UniProt P05106+P06756); test: VnR binding, ELISA or liposome attachment assay (Table I)
T1 construct: from tissue; host or cells: human placenta
Protocol: Except where stated, all procedures were carried out at 4° C. The peptide column was washed with three volumes of Tris-buffered saline (TBS) containing 1 mM Ca^2+ and Ca^2+ and 25 mM OG and then with TBS containing 1 mM 25 mM octyl thioglucoside (OTG) at room temperature. […] Finally, Ca^2+ and Mg^+2 were added to eluted fractions to achieve final concentrations of 1 mM for both ions.
Maxisorp microtiter plates were coated with 2 μg/ml human vitronectin dissolved in PBS (50 ml/well) and stored overnight at 4° C. The plates were washed two times with PBS-0.05% Tween-20 (wash buffer) and blocked by incubating with about 150 μl/well of assay buffer (1%, BSA (RIA grade or better) in 50 mM Tris-HCl, 100 mM NaCl, 1 mM MgCl2, CaCl2, MnCl2 pH 7.4) for 60 minutes. Dilutions of standards were prepared and putative inhibitors (Table 2) were dissolved in assay buffer. The blocked plates were emptied and 20 μl/well of inhibitor or standard solution was added to each well. Twenty-five μl of a 30 μg/ml solution of purified αV β3 in assay buffer was pipetted into the coated plate. The final concentration of receptor in the assay well was about 15 μg/ml. The plate was incubated on a shaker for 60 minutes. Meanwhile, for each microtite plate, 6 ml buffer solution containing 1.5 μg/ml of mouse monoclonal antibody specific for β3 is prepared. To this solution was added the secondary antibody which is anti-mouse-Fc-HRP antibody conjugate. For example, for one plate, 6 ml of a 1.5 μg/ml mouse Mab solution was prepared to which was added 1 μl of anti-mouse-Fc-HRP antibody stock, (this represents a 1:6000 dilution of the antibody--HRP conjugate). This mixture was allowed to incubate during the receptor-inhibitor incubation. The assay plates were washed 4 times with PBS-Tween and 50 μl/well of the antibody mixture was then pipetted into the plate for a 60 minute incubation. The plate was washed 4 times and the color reaction was developed with 50 μl/well of 0.67 mg/ml o-phenyldiamine in PBS containing 0.012% H2 O2. Alternatively, 16 mM citric acid, 50 mM Na2 PO4 at pH 5.0 can be used as a substrate buffer. The reaction is stopped with 50 μl/well 1 M H2 SO4. The plates were read at 492-405 nm and the data analyzed by four-parameters fit.
Briefly, 1:4 mixture of labelled and unlabelled phosphatidylcholine (PC) liposomes was dissolved under nitrogen and diluted with an equal volume of purified receptor (purified as described in Example II) to achieve a fixed predetermined receptor-liposome concentration ratio. This mixture was then dialyzed overnight at 4° C. in phosphate buffered saline (PBS) containing 1 mM Ca^2+. An aliquot of the dialyzed sample was counted to assess radioactive content; the receptor-liposome mixture was then diluted to obtain a set radioactivity per unit volume. […]

coronary thrombosis = test: Electrically induced canine coronary thrombosis, time to full occlusion; assay type: in vivo; settings: dog
Protocol: Male mongrel dogs weighing 14 to 20 kg were selected based on proper aggregation of their platelets in response to arachidonic acid, collagen, and adenosine disphosphate (ADP) and based on similar weights and hemodynamic properties.
Before surgery, the animals were anesthetized with sodium pentobarbital (30 mg/kg, i.v.) and then intubated and ventilated on room air with positive pressure using a respirator (Harvard Apparatus, S. Natick, Mass.) at a volume of 30 ml/kg and a frequency of 12 breaths/min. Surgery, performed under aseptic conditions, was begun with the placement of cannulae into the left carotid artery and jugular vein for monitoring arterial blood pressure (Statham P23 pressure transducer, Gould, Inc., Cardiovascular Products, Oxnard, Calif.) and administering intravenous fluids.
The heart was exposed via a left thoracotomy through the 5th intercostal space. […]
Animals were randomly assigned to two treatment groups: vehicle control (i.e., normal saline) or RGD peptides at various concentrations. […] The anti-thrombotic effects of the peptides were monitored until 30 minutes after the occurrence of a persistent, occlusive thrombus or five hours after the initiation of electrical stimulation (whichever resulted first). […]
Coronary thrombosis was quantified as the time to full occlusion. […]

[3] = tested on: Gore-tex vascular graft thrombosis; test: Platelet and fibrinogen uptake by Gore-Tex grafts in baboon ex vivo shunt; settings: baboon animal 2, 10 mg/kg bolus IV + 10 mg/kg/hr infusion for two hours
Protocol: Adult male baboons (weighing 16 to 25 kg) were used in these studies. These were sedated with ketamine hydrochloride (200 to 250 mg intramuscular injection) and maintained under anesthesia with sodium pentobarbital (50 to 75 mg administered intravenously as necessary).
Twenty-four hours before the ex vivo shunt was established, platelets were isolated from 500 ml of blood from the test animal and labelled with ca. 500 microcuries of indium-111 oxine (Medi+Physics, Emeryville, Calif.), which irreversibly and specifically binds to platelets with an efficiency of 50%. Immediately after labelling, these platelets were then injected back into the animal and allowed to circulate for 24 hours. Immediately before the start of the study, fibrinogen that had been isolated from the animal and labelled with iodine-131 (DuPont Nuclear, Boston, Mass.) was also injected back into the animal. Also at this time, baseline determinations of the clotting and template bleeding times were made, and blood samples were drawn for hematology studies.
To establish the ex vivo shunt, the femoral artery and vein were percutaneously cannulated with introducer catheters (KMA Inc., Mansfield, Mass.). […]
Platelet deposition onto the grafts was monitored by dynamic scanning with a gamma camera (Sigma 400, Ohio Nuclear, Inc., Sohon, Ohio), which detects the gamma radiation emitted by the ^111 indium-labelled platelets. […]

platelets [4] = test: Ex vivo platelet aggregation in canine coronary thrombosis model; settings: dog; for reduction of ex vivo aggregation relative to control levels: 3 mg/kg; for ex vivo platelet aggregation by all three stimuli: 10 mg/kg
Protocol: For all ex vivo studies (see FIG. 3), control aggregation values were standardized to the percentages of light transmission observed in PRP and PPP samples (0% and 100%, respectively).
Animals were randomly assigned to two treatment groups: vehicle control (i.e., normal saline) or RGD peptides at various concentrations. Peptides were administered intra-atrially in both bolus and continuous injections. Each bolus injection consisted of 0.5 to 10 mg/kg and was administered 15 minutes before application of the current. A continuous infusion of the same peptide was then started immediately after completion of this initial injection. Animals received a 25 μg/kg/min to 200 μg/kg/min infusion. The anti-thrombotic effects of the peptides were monitored until 30 minutes after the occurrence of a persistent, occlusive thrombus or five hours after the initiation of electrical stimulation (whichever resulted first). If an occlusive thrombus had not developed within four hours after the initiation of current, the peptide infusion was stopped.
Platelet counts and ex vivo aggregation studies were performed one hour before and 1, 3, and 5 hours after application of anodal direct current.
Platelet aggregation was also determined ex vivo at one, three, and five hours after current application. For these studies, arachidonic acid, or collagen was again used to stimulate the platelets.

platelets [5] = test: Baboon ex vivo platelet aggregation (ADP); assay type: in vivo; settings: baboon animal 2, PRP, ADP 10 μm
Protocol: At one- and two-hour time points, template bleeding times were measured, and blood samples were drawn to assess the hematology aggregation studies. Platelet aggregation studies were performed as described in Example V using ADP as the stimulus.
In addition, platelet aggregation studies were conducted on PRP derived from the second animal. Whole blood was drawn at three time points (0, 1 and 2 hours) of both control and experimental shunts.

platelets [6] = test: Thrombin-stimulated platelet aggregation (Table I); assay type: cell-based, human; settings: thrombin 2 U/ml, gel-filtered platelets
Protocol: as §1, with “Platelet aggregation assays were performed following the methods of this Example or those of Example IX.G. Platelet” for “Platelet”
as §2, with “All aggregation studies were performed at 37° C. with a constantly stirred suspension of 3×10^8 platelets/ml. (Platelet” for “(Platelet”
Peptide anti-aggregation potencies were determined from dose-responsive curves for the inhibition of the maximum aggregation responses stimulated by physiologic doses of ADP (10 μm) and thrombin (2 U/ml).

platelets [7] = assay type: cell-based, human; settings: ADP 10 μm, platelet-rich plasma; read-out: ADP-Stimulated Aggregation (IC50)
Protocol: All aggregation studies were performed at 37° C. with a constantly stirred suspension of 3×10^8 platelets/ml. (Platelet count was determined with the aid of a hemacytometer.) Peptides and stimulants were added to these suspensions in 1% dilutions. The PRP and gel-filtered platelets were used within three hours from the time of blood collection.

[8] = Rabbit peripheral blood flow (PBF), laser dopler flow probe; assay type: in vivo; settings: time 10 min, bolus dose printed with drug
Protocol: In an alternative series of experiments, (Table 2) PBF was measured quantitatively with a laser dopler flow probe (Perimed). The probe was positioned securely over the vascular bed of one ear and flow monitored continuously. Each inhibitor was infused and CBT measured in the opposing ear. No arterial catheter was placed for blood sampling, consequently XPA was measured in these animals.

T1 sequence (P06756 31-889 limits assumed): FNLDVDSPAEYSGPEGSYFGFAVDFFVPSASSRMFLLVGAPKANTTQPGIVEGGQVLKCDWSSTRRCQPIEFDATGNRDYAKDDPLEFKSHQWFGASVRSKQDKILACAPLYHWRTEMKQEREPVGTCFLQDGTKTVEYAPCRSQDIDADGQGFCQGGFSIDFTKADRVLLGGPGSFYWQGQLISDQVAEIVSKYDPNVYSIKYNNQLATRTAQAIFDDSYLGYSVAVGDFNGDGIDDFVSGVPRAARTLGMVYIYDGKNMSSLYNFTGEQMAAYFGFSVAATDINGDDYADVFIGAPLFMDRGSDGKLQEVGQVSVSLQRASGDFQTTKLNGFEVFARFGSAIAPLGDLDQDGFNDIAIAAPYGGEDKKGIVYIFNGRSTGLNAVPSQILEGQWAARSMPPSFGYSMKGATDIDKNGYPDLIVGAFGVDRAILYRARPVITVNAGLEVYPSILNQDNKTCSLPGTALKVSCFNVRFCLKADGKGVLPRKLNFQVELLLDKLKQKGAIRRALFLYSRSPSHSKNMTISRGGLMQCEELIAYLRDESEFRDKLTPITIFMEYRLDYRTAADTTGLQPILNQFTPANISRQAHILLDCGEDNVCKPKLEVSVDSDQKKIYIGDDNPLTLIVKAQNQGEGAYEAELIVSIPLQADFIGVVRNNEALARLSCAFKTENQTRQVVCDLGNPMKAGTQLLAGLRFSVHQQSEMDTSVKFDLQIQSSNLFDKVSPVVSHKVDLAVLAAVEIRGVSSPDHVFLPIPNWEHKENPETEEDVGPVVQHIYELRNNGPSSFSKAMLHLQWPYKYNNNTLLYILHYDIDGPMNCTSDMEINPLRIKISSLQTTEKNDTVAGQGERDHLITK
T1 sequence (P06756 891-1048 partner limits assumed): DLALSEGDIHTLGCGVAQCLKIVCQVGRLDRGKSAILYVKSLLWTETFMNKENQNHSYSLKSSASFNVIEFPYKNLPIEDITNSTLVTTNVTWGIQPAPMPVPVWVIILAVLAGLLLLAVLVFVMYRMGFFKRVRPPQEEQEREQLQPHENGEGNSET
T1 sequence (P05106 27-788): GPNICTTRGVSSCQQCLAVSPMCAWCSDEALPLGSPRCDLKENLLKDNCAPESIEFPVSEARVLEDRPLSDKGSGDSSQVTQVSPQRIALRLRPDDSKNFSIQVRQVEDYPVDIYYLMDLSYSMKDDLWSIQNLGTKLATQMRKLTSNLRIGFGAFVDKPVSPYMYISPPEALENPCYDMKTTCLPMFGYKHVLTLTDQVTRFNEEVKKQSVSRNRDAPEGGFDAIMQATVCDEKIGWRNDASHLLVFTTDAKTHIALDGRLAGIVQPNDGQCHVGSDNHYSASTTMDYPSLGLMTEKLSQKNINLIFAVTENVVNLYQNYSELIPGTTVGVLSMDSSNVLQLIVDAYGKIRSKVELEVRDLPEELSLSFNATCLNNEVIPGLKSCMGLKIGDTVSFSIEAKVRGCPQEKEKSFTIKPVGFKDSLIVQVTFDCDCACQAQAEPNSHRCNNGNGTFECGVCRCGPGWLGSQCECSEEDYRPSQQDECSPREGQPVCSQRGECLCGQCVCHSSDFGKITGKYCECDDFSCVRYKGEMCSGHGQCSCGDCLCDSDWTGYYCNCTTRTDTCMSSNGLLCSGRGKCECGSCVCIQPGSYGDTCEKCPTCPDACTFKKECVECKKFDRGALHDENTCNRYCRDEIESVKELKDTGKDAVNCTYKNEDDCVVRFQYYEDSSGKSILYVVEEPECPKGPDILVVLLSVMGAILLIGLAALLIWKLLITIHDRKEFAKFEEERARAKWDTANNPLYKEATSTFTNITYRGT
GP IIb/IIIa, sequence (P08514 32-887 limits assumed): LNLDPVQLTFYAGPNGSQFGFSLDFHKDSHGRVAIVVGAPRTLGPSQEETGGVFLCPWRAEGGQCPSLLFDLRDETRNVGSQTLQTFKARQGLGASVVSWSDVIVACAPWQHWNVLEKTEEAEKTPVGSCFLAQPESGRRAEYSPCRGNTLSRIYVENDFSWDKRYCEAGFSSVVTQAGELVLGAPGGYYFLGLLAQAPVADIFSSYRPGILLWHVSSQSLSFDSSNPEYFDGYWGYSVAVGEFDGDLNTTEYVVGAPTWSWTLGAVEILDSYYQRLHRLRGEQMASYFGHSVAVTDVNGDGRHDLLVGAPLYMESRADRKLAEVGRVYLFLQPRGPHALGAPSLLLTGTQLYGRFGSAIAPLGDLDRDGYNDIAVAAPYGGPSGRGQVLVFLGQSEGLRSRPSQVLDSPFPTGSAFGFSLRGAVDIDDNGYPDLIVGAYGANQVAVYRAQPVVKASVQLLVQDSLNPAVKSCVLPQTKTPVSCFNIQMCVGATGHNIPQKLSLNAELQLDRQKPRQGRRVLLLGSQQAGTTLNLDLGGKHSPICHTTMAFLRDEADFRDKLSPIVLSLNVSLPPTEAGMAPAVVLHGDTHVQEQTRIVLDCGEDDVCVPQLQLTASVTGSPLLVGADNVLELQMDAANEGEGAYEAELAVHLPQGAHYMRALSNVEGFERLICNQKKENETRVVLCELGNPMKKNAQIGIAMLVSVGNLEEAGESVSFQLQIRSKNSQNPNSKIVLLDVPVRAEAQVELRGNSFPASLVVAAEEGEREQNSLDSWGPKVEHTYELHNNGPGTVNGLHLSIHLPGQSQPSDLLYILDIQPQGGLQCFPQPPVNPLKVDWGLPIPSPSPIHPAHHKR
GP IIb/IIIa, sequence (P08514 891-1039 partner limits assumed): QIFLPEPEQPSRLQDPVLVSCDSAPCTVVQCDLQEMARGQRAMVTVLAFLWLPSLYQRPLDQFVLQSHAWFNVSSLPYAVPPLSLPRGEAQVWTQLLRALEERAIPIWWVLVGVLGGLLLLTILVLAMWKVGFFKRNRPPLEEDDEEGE
GP IIb/IIIa, sequence (P05106 27-788): as the sequence (P05106 27-788) above

(Mpr)RGD(O-Me-Y)RC-NH2 [16A]
reactivity relative to 8X in platelet aggregation (platelets [1]): about two-fold

Ac--CNPRGD(Y--OMe)RCNH2 [8X]
differential inhibition of ligand binding to GP IIb/IIIa (GP IIb/IIIa): inhibits the binding of fibrinogen to GP IIb/IIIa more than it inhibits the binding of fibronectin and vitronectin to the same integrin

FRGDSPDG
IC50 [2]: 40 nM

G(Pen)GHRGDLRCA [2G]
coronary thrombosis, time to full occlusion (coronary thrombosis; 10 mg/kg): did not significantly influence | reduction in labelled fibrinogen uptake by graft [3]: 78% | reduction in labelled platelet uptake by graft [3]: 84% | ex vivo ADP-stimulated aggregation (platelets [4]; 10 mg/kg, 1, 3 and 5 h): substantially inhibited | ex vivo platelet aggregation response (platelets [5]): completely unresponsive

GNPRGD(O-Me-Y)RD-NH2 [20Q]
potency relative to 17J (platelets [1]; times more potent than 17J): about three | potency relative to 18J (platelets [1]; times more potent than 18J): about 20

LRGDSPDG
IC50 [2]: 200 nM

R2 (Pen)GRGDTPCA
IC50 (platelets [6]): 2700 nM | IC50 (platelets [7]): 8200 nM

R(Pen GRGDWPCR [4R]
IC50 (platelets [6]): 530 nM | coronary thrombosis, time to full occlusion (coronary thrombosis; 3 mg/kg): ineffective | reduction of ex vivo aggregation relative to control levels (platelets [4]; one hour): 20-58% | reduction of ex vivo aggregation relative to control levels (platelets [4]; three and five hours): 75-100% and 72-100% | ex vivo platelet aggregation by all three stimuli (platelets [4]): unresponsive to all modes of stimulation at all time points

R(Pen)GHRGDWRCR [4Q]
PBF [8]: 9 units | ex vivo platelet activation by collagen (platelets [4]; 5 mg/kg): near-maximal inhibition | ex vivo platelet response to ADP and AA (platelets [4]; 5 mg/kg, all three time points): completely unresponsive | ex vivo platelet aggregation by all three stimuli (platelets [4]): prevented platelet aggregation by all three stimuli

RGD(O-Me-Y)RE-NH2 [21I]
reactivity relative to 8X in platelet aggregation (platelets [1]): about three-fold

VRGDSPDG
IC50 [2]: 240 nM

YRGDSPDG
IC50 [2]: 80 nM
